Measured values: patent US20160213680A1, “COMPOSITIONS AND METHODS USING FLUMAZENIL WITH OPIOID ANALGESICS FOR TREATING PAIN AND/OR ADDICTION, AND WITH DIVERSION AND/OR OVERDOSE MITIGATION” (SOTERIAN PHARMACEUTICALS, LLC, priority 2015, published 2016)
Several values for one entry are separate records, joined by “and”; a condition that tells them apart may be missing. Equal entries are not always repeated. Entries after “also recorded” stand apart in the source; their conditions may differ.

Legend:
[1] = tested on: patients who had been taking methadone; test: Example 2: conversion of methadone patients to the sublingual tablet (withdrawal, VAS pain); type: in vivo, human; details: patients withdrawing from methadone
Protocol: […]. These patients took an average of 9 days to convert before methadone withdrawal was completely eliminated.
Patients who had been taking 50 mg to 140 mg per day of methadone were first titrated down with Ultram (e.g., via 2 to 3 tablets of Ultram 50 mg administered every 6 hours) for four days. Following this titration period, the patients were given injections containing 0.3 mg buprenorphine and 60 mg torodol to see if further time was needed before the sublingual tablets comprising buprenorphine and flumazenil could be started without risk of precipitating withdrawal. […]. Stomach tightness, nausea, and restless legs were the most common complaints from these patients.

[2] = tested on: sedation associated with benzodiazepines (midazolam); type: in vivo, human
Protocol: Subjects were pretreated with about 10 mg flumazenil orally. After 30 minutes midazolam (a benzodiazepine) 0.3 mg was administered and repeated every 30 minutes until sedative effects were noticed by the subject or reported by the investigator. Oral flumazenil of about 10 mg was able to block midazolam for an average of 150 minutes.
This example study was repeated with about 30 mg flumazenil orally (2 subjects) and sublingually (3 subjects). Allowing the sublingual flumazenil treatment option was thought to avoid first pass hepatic metabolism and potentially increase Cmax (maximum [or peak] serum concentration), shorten Tmax (time at which the Cmax is observed) and is expected to increase the area under the curve for flumazenil in the serum. In this dose range study subjects were again pretreated with about 30 mg flumazenil orally or sublingually. After 30 minutes midazolam (Versed) 0.3 mg was administered and repeated every 30 minutes until sedative effects were noticed by the subject or reported by the investigator.

[3] = Tablet pilot studies of flumazenil tolerability; type: in vivo, human; details: tablet formulations, compared with IV flumazenil history
Description: Note, several historical physiological ideas about IV flumazenil may be much different compared to the formulations of flumazenil used in the various pharmaceutical dosage units. […] When patients are currently prescribed opiates, such patients are instructed to avoid benzodiazepines and the pharmaceutical dosage units disclosed herein may make physicians more confident that such patients will remain compliant with that instruction.

[4] = in vivo, cited from earlier work

CCOC(=O)c1ncn2c1CN(C)C(=O)c1cc(F)ccc1-2 [flumazenil, ethyl 8-fluoro-5-methyl-6-oxo-5,6-dihydro-4H-benzo[f]imidazo[1,5-a][1,4]diazepine-3-carboxylate]
effect of flumazenil on the pain and withdrawal relieving effect of buprenorphine [1]: noticeably enhanced
duration of blockade from Versed ([2]; about 3 mg IV flumazenil): 60 min
duration of midazolam blockade / protection from sedation (average) ([2]; about 10 mg flumazenil orally, midazolam 0.3 mg every 30 minutes): 150 min
sedation at the 330 minute interval ([2]; about 30 mg flumazenil orally or sublingually, all subjects): measurable (but reduced) sedation
duration of midazolam blockade, individual subjects ([2]; about 30 mg flumazenil orally, the 2 subjects): 240 min and 270 min
time for flumazenil to clear the serum (average) ([2]; human, in vivo, po): about 3 hours
anxiety, panic attacks, dysphoria, disorientation [3]: does not cause anxiety nor panic attacks; also recorded: no dysphoria nor disorientation
oral and/or gastrointestinal bioavailability ([4]; po): very low
elimination half-life [4]: 1.4 h

Cc1ncc2n1-c1ccc(Cl)cc1C(c1ccccc1F)=NC2 [midazolam]
time to maximum sedation after IV midazolam dosing ([2]; midazolam 0.3 mg IV): 5 min
